Source: patent US9615576B2, “Pesticidal compositions and processes related thereto” (Dow AgroSciences LLC, priority 2011, dated 2017)

How the values were obtained:
[1] = test system: Beet Armyworm (BAW) (Spodoptera exigua); assay: Bioassays on Beet Armyworm (BAW), 128-well diet tray assay; assay type: in vivo; settings: 168 h, 50 μg/cm^2 test compound on artificial diet, second instar larvae, 25° C., five to seven days, average of eight wells, read-out: BAW Rating (% mortality)
Procedure, shortened: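 Second-instar larvae (1–5 per well) on artificial diet surface-treated with 50 μg/cm^2 compound applied in 90:10 acetone-water and dried; eight wells per compound. Held 5–7 days at 25° C., 14:10 light-dark. Percent mortality scored per well and averaged over eight wells.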

[2] = test system: Corn Earworm (CEW) (Helicoverpa zea); assay: Bioassays on Corn Earworm (CEW), 128-well diet tray assay; assay type: in vivo; settings: 168 h, 50 μg/cm^2 test compound on artificial diet, second instar larvae, 25° C., five to seven days, average of eight wells, read-out: CEW Rating (% mortality)
Procedure, shortened: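 Second-instar larvae (one to five per well) placed on artificial diet treated with 50 μg/cm^2 compound in 90:10 acetone-water, dried; eight wells per compound. Held at 25° C, 14:10 light-dark, five to seven days; percent mortality averaged over wells.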

SMILES | mortality at 50 µg/cm2 [1] [%] | mortality at 50 µg/cm2 [2] [%]
O=C(NC1CSC1)c1ccc(/C=C/C(c2cc(Cl)c(Cl)c(Cl)c2)C(F)(F)F)cc1Cl (stereo not shown) [AC29] | 50 to 100 | 50 to 100
FC(F)(F)C(/C=C/c1ccc(-n2cncn2)cc1)c1cc(Cl)c(Cl)c(Cl)c1 (stereo not shown) [DC18] | 50 to 100 | 50 to 100
Cc1cc(/C=C/C(c2ccc(Cl)c(Cl)c2)C(F)(F)F)ccc1C(=O)NCc1ccc(Cl)nc1 (stereo not shown) [AC37] | 50 to 100 | 50 to 100
CNC(=O)c1ccc(/C=C/C(c2cc(Cl)cc(Cl)c2)C(F)(F)F)cc1 (stereo not shown) [AC1] | 0 | 0
N#Cc1cc(/C=C/C(c2cc(Cl)c(F)c(Cl)c2)C(F)(F)F)ccc1-n1cncn1 (stereo not shown) [DC35] | 50 to 100 | 50 to 100
O=C(NC1CSC1)c1ccc(/C=C/C(c2cc(Cl)c(F)c(Cl)c2)C(F)(F)F)cc1F (stereo not shown) [AC67] | 50 to 100 | 50 to 100
O=C(NCc1ccc(/C=C/C(c2cc(Cl)cc(Cl)c2)C(F)(F)F)cc1Cl)C1CC1 (stereo not shown) [CC8] | 50 to 100 | 50 to 100
O=C(c1ccc(/C=C/C(c2cc(Cl)c(Cl)c(Cl)c2)C(F)(F)F)cc1Br)N1CCN(CC(F)(F)F)CC1 (stereo not shown) [AC101] | 0 | 0
CSCCC(=O)NCc1ccc(/C=C/C(c2cc(Cl)c(Cl)c(Cl)c2)C(F)(F)F)cc1Cl (stereo not shown) [CC19] | 50 to 100 | 50 to 100
Cc1cc(/C=C/C(c2cc(Cl)cc(Cl)c2)C(F)(F)F)ccc1C(=O)NCc1nccn1C (stereo not shown) [AC50] | 50 to 100 | 0
Cc1cc(/C=C/C(c2cc(Cl)cc(Cl)c2)C(F)(F)F)ccc1C(=O)NCc1cccnc1 (stereo not shown) [AC14] | 50 to 100 | 0 to 50
Cc1cc(/C=C/C(c2cc(Cl)cc(Cl)c2)C(F)(F)F)ccc1C(=S)NCc1ccc(Cl)nc1 (stereo not shown) [AC115, (E)-N-((6-chloropyridin-3-yl)methyl)-4-(3-(3,5-dichlorophenyl)-4,4,4-trifluorobut-1-en-1-yl)-2-methylbenzothioamide] | 50 to 100 | 50 to 100
CC(C)(C)OC(=O)CNC(=O)c1ccc(/C=C/C(c2cc(Cl)c(Cl)c(Cl)c2)C(F)(F)F)cc1Br (stereo not shown) [AC58] | 50 to 100 | 50 to 100
NC(=O)c1cc(/C=C/C(c2cc(Cl)cc(Cl)c2)C(F)(F)F)ccc1-n1cncn1 (stereo not shown) [DC58] | 0 | 0
N#Cc1cc(/C=C\C(c2cc(Cl)c(F)c(Cl)c2)C(F)(F)F)ccc1-n1cncn1 (stereo not shown) [DC46] | 50 to 100 | 50 to 100
O=[N+]([O-])c1cc(/C=C/C(c2cc(Cl)cc(Cl)c2)C(F)(F)F)ccc1-n1cncn1 (stereo not shown) [DC54] | 0 | 0
Cc1cc(/C=C/C(c2cc(Cl)cc(Cl)c2)C(F)(F)F)ccc1C(=O)NCC(F)(F)F (stereo not shown) [AC6, (E)-4-(3-(3,5-dichlorophenyl)-4,4,4-trifluorobut-1-enyl)-2-methyl-N-(2,2,2-trifluoroethyl)benzamide] | 0 | 50 to 100
Cc1cc(/C=C/C(c2cc(Cl)cc(Cl)c2)C(F)(F)F)ccc1C(=O)NC(C)c1ccc(Cl)nc1 (stereo not shown) [AC44] | 50 to 100 | 50 to 100
O=C(NCc1ccc(/C=C/C(c2cc(Cl)c(Cl)c(Cl)c2)C(F)(F)F)cc1Cl)N1CCOCC1 (stereo not shown) [CC34] | 50 to 100 | 50 to 100
Cc1cc(/C=C/C(c2cc(Cl)cc(Cl)c2)C(F)(F)F)ccc1C(=O)NCC1CCCO1 (stereo not shown) [AC118] | 50 to 100 | 0
Cc1cc(/C=C/C(c2cc(Cl)c(F)c(Cl)c2)C(F)(F)F)ccc1C(=O)NCC(=O)NCC(F)(F)F (stereo not shown) [AC69] | 50 to 100 | 50 to 100
FC(F)(F)C(/C=C/c1ccc(-n2cncn2)cc1)c1cc(Cl)ccc1Cl (stereo not shown) [DC15] | 0 | 0
CC(=O)NCc1ccc(/C=C/C(c2cc(Cl)cc(Cl)c2)C(F)(F)F)cc1 (stereo not shown) [CC1, (E)-N-(4-(3-(3,5-dichlorophenyl)-4,4,4-trifluorobut-1-enyl)benzyl)acetamide] | 0 | 0
O=C(NC1CS(=O)(=O)C1)c1ccc(/C=C/C(c2cc(Cl)c(F)c(Cl)c2)C(F)(F)F)cc1F (stereo not shown) [AC84] | 50 to 100 | 50 to 100
COc1c(Cl)cc(C(/C=C/c2ccc(-n3cncn3)cc2)C(F)(F)F)cc1Cl (stereo not shown) [DC20] | 50 to 100 | 0

SMILES | mortality at 50 µg/cm2 [1] [%] | mortality at 50 µg/cm2 [2] [%]
O=C(NCc1ccc(C(F)(F)F)nc1)c1ccc(/C=C/C(c2cc(Cl)c(Cl)c(Cl)c2)C(F)(F)F)cc1Br (stereo not shown) [AC75] | 50 to 100 | 50 to 100
O=C(NCc1ccc(Cl)nc1)c1ccc(/C=C/C(c2cc(Cl)c(Cl)c(Cl)c2)C(F)(F)F)cc1Cl (stereo not shown) [AC28] | 50 to 100 | 50 to 100
COc1cc(/C=C/C(c2cc(Cl)c(F)c(Cl)c2)C(F)(F)F)ccc1C(=O)NC1CSC1 (stereo not shown) [AC71] | 50 to 100 | 50 to 100
Cc1cc(/C=C/C(c2cc(Cl)cc(Cl)c2)C(F)(F)F)ccc1C(=O)N(C)Cc1ccc(Cl)nc1 (stereo not shown) [AC117] | 50 to 100 | 0
O=C(CC(F)(F)F)NCC(=O)n1ccc2cc(/C=C/C(c3cc(Cl)c(F)c(Cl)c3)C(F)(F)F)ccc21 (stereo not shown) [BC13, (E)-N-(2-(5-(3-(3,5-dichloro-4-fluorophenyl)-4,4,4-trifluorobut-1-en-1-yl)-1H-indol-1-yl)-2-oxoethyl)-3,3,3-trifluoropropanamide] | 50 to 100 | 50 to 100
O=C(NCc1ccc(/C=C/C(c2cc(Cl)c(Cl)c(Cl)c2)C(F)(F)F)c2ccccc12)C1CC1 (stereo not shown) [CC48] | 0 | 0
FC(F)(F)CNC(=S)CNC(=S)c1ccc(/C=C/C(c2cc(Cl)c(Cl)c(Cl)c2)C(F)(F)F)cc1Br (stereo not shown) [AC90, (E)-2-bromo-N-(2-thioxo-2-((2,2,2-trifluoroethyl)amino)ethyl)-4-(4,4,4-trifluoro-3-(3,4,5-trichlorophenyl)but-1-en-1-yl)benzothioamide] | 50 to 100 | 50 to 100
O=C(NC1CSC1)c1ccc(/C=C/C(c2cc(Cl)cc(Cl)c2)C(F)(F)F)cc1F (stereo not shown) [AC61] | 50 to 100 | 50 to 100
C=CCNC(=S)NCc1ccc(/C=C/C(c2cc(Cl)c(Cl)c(Cl)c2)C(F)(F)F)cc1Cl (stereo not shown) [CC38] | 50 to 100 | 50 to 100
FC(F)(F)c1cc(C(/C=C/c2ccc(-n3cncn3)cc2)C(F)(F)F)cc(C(F)(F)F)c1 (stereo not shown) [DC16] | 50 to 100 | 50 to 100
Cc1cc(/C=C/C(c2cc(Cl)c(Cl)c(Cl)c2)C(F)(F)F)ccc1C(=O)NCC(=O)NCC(F)(F)F (stereo not shown) [AC78] | 50 to 100 | 50 to 100
Cc1cc(/C=C/C(c2cc(Cl)c(Cl)c(Cl)c2)C(F)(F)F)ccc1C(=O)NC1CSC1 (stereo not shown) [AC23] | 50 to 100 | 50 to 100
Cc1cc(/C=C/C(c2cc(Cl)cc(Cl)c2)C(F)(F)F)ccc1C(=O)NCC(=O)NC1CS(=O)(=O)C1 (stereo not shown) [AC81] | 50 to 100 | 0
Cc1cc(/C=C/C(c2cc(Cl)cc(Cl)c2)C(F)(F)F)ccc1C(=O)NCc1ccoc1 (stereo not shown) [AC20] | 50 to 100 | 50 to 100
FC(F)(F)c1cc(Cl)cc(C(/C=C/c2ccc(-n3cncn3)cc2)C(F)(F)F)c1 (stereo not shown) [DC19] | 50 to 100 | 50 to 100
O=C(NCc1ccc(/C=C/C(c2cc(Cl)c(Cl)c(Cl)c2)C(F)(F)F)cc1F)C1CC1 (stereo not shown) [CC28] | 50 to 100 | 50 to 100
Cc1cc(/C=C/C(c2cc(Cl)c(F)c(Cl)c2)C(F)(F)F)ccc1C(=O)NCc1ccc(Cl)nc1 (stereo not shown) [AC38] | 50 to 100 | 50 to 100
O=C(CNC(=O)c1ccc(/C=C/C(c2cc(Cl)c(F)c(Cl)c2)C(F)(F)F)cc1Br)NCC(F)(F)F (stereo not shown) [AC79, (E)-2-bromo-4-(3-(3,5-dichloro-4-fluorophenyl)-4,4,4-trifluorobut-1-en-1-yl)-N-(2-oxo-2-((2,2,2-trifluoroethyl)amino)ethyl)benzamide] | 50 to 100 | 50 to 100
CCOC(=O)c1cc(/C=C/C(c2cc(Cl)cc(Cl)c2)C(F)(F)F)ccc1-n1cncn1 (stereo not shown) [DC60] | 50 to 100 | 50 to 100
Cc1ncnn1-c1ccc(/C=C/C(c2cc(Cl)cc(Cl)c2)C(F)(F)F)cc1 (stereo not shown) [DC23] | 0 | 50 to 100
N#Cc1cc(/C=C/C(c2cc(Cl)c(Cl)c(Cl)c2)C(F)(F)F)ccc1-n1cnc(N)n1 (stereo not shown) [DC41, (E)-2-(3-amino-1H-1,2,4-triazol-1-yl)-5-(4,4,4-trifluoro-3-(3,4,5-trichlorophenyl)but-1-en-1-yl)benzonitrile] | 50 to 100 | 50 to 100
Cc1cc(/C=C/C(c2cc(Cl)cc(Cl)c2)C(F)(F)F)ccc1C(=O)NN(C)c1ccccc1F (stereo not shown) [AC45] | 50 to 100 | 50 to 100
Cc1cc(/C=C/C(c2cc(Cl)cc(Cl)c2)C(F)(F)F)ccc1C(=O)NC1CSC1 (stereo not shown) [AC10] | 50 to 100 | 50 to 100
N/C(=N\O)c1cc(/C=C/C(c2cc(Cl)cc(Cl)c2)C(F)(F)F)ccc1-n1cncn1 (stereo not shown) [DC59, (Z)-5-((E)-3-(3,5-dichlorophenyl)-4,4,4-trifluorobut-1-en-1-yl)-N′-hydroxy-2-(1H-1,2,4-triazol-1-yl)benzimidamide] | 0 | 0
Cc1cc(/C=C/C(c2cc(Cl)cc(Cl)c2)C(F)(F)F)ccc1C(=O)NCc1cnccn1 (stereo not shown) [AC43] | 50 to 100 | 50 to 100
